Here are results for 17 molecules from ChEMBL document CHEMBL3991601, “The target landscape of clinical kinase drugs” (Science, 2017).

Where a name gives a salt, the structure may show the parent alone. Calls of active or inactive are those of the source. For most assays here, no stated cut-off is given here; in the data, actives have a measured Kd and inactives only a lower limit.

Test [1] deals with Mitogen-activated protein kinase kinase kinase kinase 1 (Homo sapiens, UniProt Q92918).
In a further test the target is T1, Activin receptor type-1 (Homo sapiens, UniProt Q04771).
T1 sequence (Q04771 whole entry): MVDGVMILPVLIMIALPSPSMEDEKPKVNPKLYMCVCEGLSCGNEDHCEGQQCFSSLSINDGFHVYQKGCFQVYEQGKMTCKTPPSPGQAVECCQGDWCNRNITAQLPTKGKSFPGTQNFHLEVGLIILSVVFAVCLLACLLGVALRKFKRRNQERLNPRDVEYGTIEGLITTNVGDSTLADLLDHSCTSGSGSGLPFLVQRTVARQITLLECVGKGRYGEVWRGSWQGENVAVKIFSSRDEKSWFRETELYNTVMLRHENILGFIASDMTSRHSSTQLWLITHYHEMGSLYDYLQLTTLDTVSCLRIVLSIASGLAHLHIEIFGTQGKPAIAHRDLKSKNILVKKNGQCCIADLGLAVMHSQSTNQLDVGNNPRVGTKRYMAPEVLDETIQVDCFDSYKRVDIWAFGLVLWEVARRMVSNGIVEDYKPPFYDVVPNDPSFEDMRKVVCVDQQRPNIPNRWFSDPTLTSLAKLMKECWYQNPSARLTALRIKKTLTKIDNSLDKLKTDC

The target in the next test is T2, Glycine--tRNA ligase (Homo sapiens, UniProt P41250).
T2 sequence (P41250 whole entry): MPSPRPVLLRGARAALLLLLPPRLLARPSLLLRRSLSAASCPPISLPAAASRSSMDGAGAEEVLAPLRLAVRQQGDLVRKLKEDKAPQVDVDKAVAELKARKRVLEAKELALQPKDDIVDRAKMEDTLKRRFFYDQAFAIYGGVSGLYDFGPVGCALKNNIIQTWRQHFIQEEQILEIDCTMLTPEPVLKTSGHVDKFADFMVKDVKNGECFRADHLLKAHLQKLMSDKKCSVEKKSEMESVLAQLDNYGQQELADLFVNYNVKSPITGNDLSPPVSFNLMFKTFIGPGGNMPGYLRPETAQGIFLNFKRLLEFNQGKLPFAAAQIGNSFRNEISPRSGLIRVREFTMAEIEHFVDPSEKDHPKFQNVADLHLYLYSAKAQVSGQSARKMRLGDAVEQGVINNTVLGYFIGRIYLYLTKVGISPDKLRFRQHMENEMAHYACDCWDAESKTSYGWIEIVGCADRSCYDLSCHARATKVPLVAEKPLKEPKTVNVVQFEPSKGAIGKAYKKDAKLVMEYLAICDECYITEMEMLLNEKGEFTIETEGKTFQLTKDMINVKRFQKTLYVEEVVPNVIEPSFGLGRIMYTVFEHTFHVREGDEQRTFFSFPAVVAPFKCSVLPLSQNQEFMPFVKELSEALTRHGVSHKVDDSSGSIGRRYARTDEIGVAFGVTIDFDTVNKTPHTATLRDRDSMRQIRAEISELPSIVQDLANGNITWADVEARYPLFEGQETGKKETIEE

Test [2] has as its target S-adenosylmethionine synthase isoform type-2 (Homo sapiens, UniProt P31153).
Test [3] concerns the target Rho-associated protein kinase 1 (Homo sapiens, UniProt Q13464).
The target in test [4] is T3, Interleukin-1 receptor-associated kinase 3 (Homo sapiens, UniProt Q9Y616).
T3 sequence (Q9Y616 whole entry): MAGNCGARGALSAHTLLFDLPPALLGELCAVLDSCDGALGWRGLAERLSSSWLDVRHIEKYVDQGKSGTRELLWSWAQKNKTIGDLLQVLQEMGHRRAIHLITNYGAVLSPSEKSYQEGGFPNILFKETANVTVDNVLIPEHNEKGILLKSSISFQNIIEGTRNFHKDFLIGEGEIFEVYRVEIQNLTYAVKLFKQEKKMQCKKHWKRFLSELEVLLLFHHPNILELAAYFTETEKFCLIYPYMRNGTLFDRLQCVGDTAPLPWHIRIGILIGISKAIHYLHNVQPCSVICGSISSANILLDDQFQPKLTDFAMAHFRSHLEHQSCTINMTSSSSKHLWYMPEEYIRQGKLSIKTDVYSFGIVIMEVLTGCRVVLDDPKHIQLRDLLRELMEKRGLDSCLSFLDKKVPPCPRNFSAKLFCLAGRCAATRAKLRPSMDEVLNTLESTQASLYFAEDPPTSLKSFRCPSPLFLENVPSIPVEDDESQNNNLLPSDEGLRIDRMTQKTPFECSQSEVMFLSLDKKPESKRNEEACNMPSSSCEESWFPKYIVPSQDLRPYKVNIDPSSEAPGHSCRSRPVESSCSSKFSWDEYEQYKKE

Test [5] deals with Dual specificity mitogen-activated protein kinase kinase 1 (Homo sapiens, UniProt Q02750).
Sequence of Dual specificity mitogen-activated protein kinase kinase 1 (Q02750 whole entry): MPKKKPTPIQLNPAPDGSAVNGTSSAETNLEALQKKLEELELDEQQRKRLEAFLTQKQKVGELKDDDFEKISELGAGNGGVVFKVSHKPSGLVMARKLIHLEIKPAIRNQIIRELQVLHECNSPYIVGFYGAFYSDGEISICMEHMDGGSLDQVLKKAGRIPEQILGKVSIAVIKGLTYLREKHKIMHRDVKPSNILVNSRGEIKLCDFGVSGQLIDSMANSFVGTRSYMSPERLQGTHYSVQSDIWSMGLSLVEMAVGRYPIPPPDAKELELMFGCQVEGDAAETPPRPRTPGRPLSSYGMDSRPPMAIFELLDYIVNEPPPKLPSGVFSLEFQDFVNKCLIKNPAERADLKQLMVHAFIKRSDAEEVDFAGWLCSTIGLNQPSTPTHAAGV

By Kd is commonly meant a measure of binding affinity in units of concentration.

Sequence of S-adenosylmethionine synthase isoform type-2 (P31153 whole entry, canonical isoform): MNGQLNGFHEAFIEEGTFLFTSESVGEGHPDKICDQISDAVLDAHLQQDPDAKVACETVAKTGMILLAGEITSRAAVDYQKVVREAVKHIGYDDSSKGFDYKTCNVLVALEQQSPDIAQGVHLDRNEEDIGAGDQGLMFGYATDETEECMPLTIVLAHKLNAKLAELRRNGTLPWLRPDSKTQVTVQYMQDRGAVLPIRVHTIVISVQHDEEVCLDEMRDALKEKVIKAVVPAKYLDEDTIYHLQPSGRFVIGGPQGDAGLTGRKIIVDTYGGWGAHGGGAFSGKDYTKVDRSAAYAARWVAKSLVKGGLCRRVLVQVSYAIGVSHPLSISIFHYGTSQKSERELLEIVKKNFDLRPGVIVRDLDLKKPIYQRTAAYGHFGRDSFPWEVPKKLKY
Sequence of Rho-associated protein kinase 1 (Q13464 whole entry): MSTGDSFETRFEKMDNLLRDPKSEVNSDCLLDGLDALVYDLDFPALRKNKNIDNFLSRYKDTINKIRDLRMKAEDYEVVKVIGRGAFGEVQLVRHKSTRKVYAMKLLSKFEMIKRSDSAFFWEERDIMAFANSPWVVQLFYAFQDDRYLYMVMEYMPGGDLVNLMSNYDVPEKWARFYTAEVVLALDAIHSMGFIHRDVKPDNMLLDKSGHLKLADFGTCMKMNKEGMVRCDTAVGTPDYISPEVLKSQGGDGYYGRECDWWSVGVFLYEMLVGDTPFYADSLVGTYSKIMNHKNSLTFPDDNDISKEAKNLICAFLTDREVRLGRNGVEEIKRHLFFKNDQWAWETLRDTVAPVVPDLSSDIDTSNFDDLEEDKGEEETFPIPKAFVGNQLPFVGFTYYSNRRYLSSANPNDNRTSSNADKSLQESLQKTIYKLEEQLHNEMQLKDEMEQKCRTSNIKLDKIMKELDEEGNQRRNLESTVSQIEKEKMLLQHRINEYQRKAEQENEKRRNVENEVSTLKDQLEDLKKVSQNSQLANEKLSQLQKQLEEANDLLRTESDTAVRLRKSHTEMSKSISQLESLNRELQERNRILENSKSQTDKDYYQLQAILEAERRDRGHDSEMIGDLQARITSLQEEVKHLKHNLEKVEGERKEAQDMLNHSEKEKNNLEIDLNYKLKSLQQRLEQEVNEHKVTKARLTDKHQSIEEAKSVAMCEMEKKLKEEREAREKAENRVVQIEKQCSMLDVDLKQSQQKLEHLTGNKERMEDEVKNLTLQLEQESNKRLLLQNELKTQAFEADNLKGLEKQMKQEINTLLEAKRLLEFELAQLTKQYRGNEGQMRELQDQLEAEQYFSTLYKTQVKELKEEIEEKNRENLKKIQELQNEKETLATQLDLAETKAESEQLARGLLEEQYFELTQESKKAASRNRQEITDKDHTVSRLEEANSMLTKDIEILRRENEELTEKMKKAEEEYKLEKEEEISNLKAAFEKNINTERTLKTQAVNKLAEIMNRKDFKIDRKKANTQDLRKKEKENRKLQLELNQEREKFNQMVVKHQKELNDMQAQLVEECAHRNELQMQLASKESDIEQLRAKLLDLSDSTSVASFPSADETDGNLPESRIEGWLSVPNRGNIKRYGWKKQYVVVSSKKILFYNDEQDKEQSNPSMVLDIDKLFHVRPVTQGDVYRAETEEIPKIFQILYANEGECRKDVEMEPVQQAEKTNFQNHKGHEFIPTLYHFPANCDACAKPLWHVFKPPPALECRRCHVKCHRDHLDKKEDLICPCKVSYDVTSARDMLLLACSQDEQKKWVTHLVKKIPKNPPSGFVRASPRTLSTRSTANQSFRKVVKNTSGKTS
Sequence of Mitogen-activated protein kinase kinase kinase kinase 1 (Q92918 whole entry): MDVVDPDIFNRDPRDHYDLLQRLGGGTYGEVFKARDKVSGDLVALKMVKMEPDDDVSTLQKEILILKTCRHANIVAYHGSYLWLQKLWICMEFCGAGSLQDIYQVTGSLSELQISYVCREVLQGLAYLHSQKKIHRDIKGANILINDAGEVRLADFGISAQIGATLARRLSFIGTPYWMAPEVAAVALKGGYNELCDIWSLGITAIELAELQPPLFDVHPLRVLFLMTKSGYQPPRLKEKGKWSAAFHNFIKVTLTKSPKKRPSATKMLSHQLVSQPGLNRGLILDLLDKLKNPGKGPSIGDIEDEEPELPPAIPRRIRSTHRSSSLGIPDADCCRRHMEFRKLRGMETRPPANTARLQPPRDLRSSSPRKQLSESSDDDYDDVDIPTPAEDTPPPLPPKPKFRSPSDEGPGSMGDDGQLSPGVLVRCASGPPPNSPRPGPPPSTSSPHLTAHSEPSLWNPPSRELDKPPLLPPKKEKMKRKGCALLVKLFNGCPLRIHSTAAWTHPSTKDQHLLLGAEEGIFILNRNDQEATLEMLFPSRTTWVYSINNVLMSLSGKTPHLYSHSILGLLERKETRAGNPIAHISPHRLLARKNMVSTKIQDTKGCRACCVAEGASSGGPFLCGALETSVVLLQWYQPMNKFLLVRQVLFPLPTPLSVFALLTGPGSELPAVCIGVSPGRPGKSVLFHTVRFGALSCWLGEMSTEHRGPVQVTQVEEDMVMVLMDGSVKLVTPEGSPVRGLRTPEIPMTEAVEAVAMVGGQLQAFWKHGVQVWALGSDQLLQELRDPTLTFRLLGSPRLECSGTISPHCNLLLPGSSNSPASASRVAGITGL

Take `COc1c(OCCCN2CCOCC2)ccc2c1N=C(NC(=O)c1cnc(N)nc1)N1CCN=C21` [COPANLISIB]: the Kd (in test [1]; on Activin receptor type-1; on Glycine--tRNA ligase; in test [2]; in test [3]; in test [4]) was > 30 µM (inactive) each time. Further, in test [5], the Kd is > 30 µM (inactive).
For `COCC(=O)NC/C=C/c1ccc2ncnc(Nc3ccc(Oc4ccc(C)nc4)c(C)c3)c2c1` [CP-724714], the Kd (in test [1]; on Activin receptor type-1; at Glycine--tRNA ligase; in test [2]; in test [3]; in test [4]) was > 30 µM (inactive) throughout. For the same molecule, the Kd in test [5] is > 30 µM (inactive).
For `C#Cc1cccc(Nc2ncnc3cc(OC)c(OCCCCCCC(=O)NO)cc23)c1` [CUDC-101], the Kd (in test [1]; at Activin receptor type-1; at Glycine--tRNA ligase; in test [2]; in test [3]; in test [4]) was > 30 µM (inactive) throughout. For the same molecule, the Kd in test [5] is > 30 µM (inactive).
Take `CCS(=O)(=O)N1CCN(c2ccc(Nc3ncc(C(N)=O)c(NC4CC4)n3)cc2)CC1` [Cerdulatinib Hydrochloride]: the Kd (in test [1]; at Activin receptor type-1; on Glycine--tRNA ligase; in test [2]; in test [3]; in test [4]) was > 30 µM (inactive) each time. In addition, the Kd in test [5] was > 30 µM (inactive).
In the case of `Cc1nc2cc(-n3ncc(C(=O)c4cc5ccccc5[nH]4)c3N)ccc2[nH]1` [FGFR INHIBITOR DEBIO 1347], the Kd (in test [1]; at Activin receptor type-1; at Glycine--tRNA ligase; in test [2]; in test [3]; in test [4]) was > 30 µM (inactive) each time. The Kd in test [5] is > 30 µM (inactive).
Consider `O=C(Nc1nc2cccc(-c3ccc(CN4CCS(=O)(=O)CC4)cc3)n2n1)C1CC1` [FILGOTINIB], for which the Kd (in test [1]; at Activin receptor type-1; at Glycine--tRNA ligase; in test [2]; in test [3]; in test [4]) was > 30 µM (inactive) in each case. The Kd in test [5] was > 30 µM (inactive).
As for `Cc1cccc(-c2nn3c(c2-c2ccnc4ccc(C(N)=O)cc24)CCC3)n1` [GALUNISERTIB], the Kd (in test [1]; at Activin receptor type-1; on Glycine--tRNA ligase; in test [2]; in test [3]; in test [4]) was > 30 µM (inactive) throughout. Besides, in test [5], the Kd is > 30 µM (inactive).
On to `COc1ccc(S(=O)(=O)N(C(C)=O)c2ccccc2/C=C/c2cc[n+]([O-])cc2)cc1` [HMN-214], for which the Kd (in test [1]; at Activin receptor type-1; on Glycine--tRNA ligase; in test [2]; in test [3]; in test [4]) was > 30 µM (inactive) in each case. Moreover, the Kd in test [5] was > 30 µM (inactive).
For the molecule `CNC(=O)c1nn(C)c2c1C(C)(C)Cc1cnc(Nc3ccc(N4CCN(C)CC4)cc3)nc1-2` [MILCICLIB], the Kd in test [1] was 0.212 µM (active); on Activin receptor type-1, 0.477 µM (active); on Glycine--tRNA ligase, > 30 µM (inactive); in test [2], > 30 µM (inactive); in test [3], > 30 µM (inactive); in test [4], 0.291 µM (active). Besides, the Kd in test [5] is > 30 µM (inactive).
As for `NC1(c2ccc(-c3nc4ccn5c(=O)[nH]nc5c4cc3-c3ccccc3)cc2)CCC1` [MK-2206], the Kd (in test [1]; on Activin receptor type-1; on Glycine--tRNA ligase; in test [2]; in test [3]; in test [4]) was > 30 µM (inactive) throughout. Also, in test [5], the Kd was > 30 µM (inactive).
With `CN(C[C@@H]1COCCO1)S(=O)(=O)Nc1ccc2ccc3ncc(-c4cnn(C)c4)cc3c(=O)c2c1` [MK-2461], the Kd was > 30 µM (inactive) in test [1]; > 30 µM (inactive) at Activin receptor type-1; > 30 µM (inactive) on Glycine--tRNA ligase; > 30 µM (inactive) in test [2]; > 30 µM (inactive) in test [3]; 0.502 µM (active) in test [4]. The Kd in test [5] is > 30 µM (inactive).
As for `Cn1cc(-c2cnc3ccc4ccc(CS(=O)(=O)NCc5ccccn5)cc4c(=O)c3c2)cn1` [MK-8033], the Kd (in test [1]; on Activin receptor type-1; at Glycine--tRNA ligase; in test [2]; in test [3]; in test [4]) was > 30 µM (inactive) each time. Besides, the Kd in test [5] is > 30 µM (inactive).
Consider `COc1ncc(-c2ccc3nccc(-c4ccnnc4)c3c2)cc1NS(=O)(=O)c1ccc(F)cc1F` [OMIPALISIB], for which the Kd was > 30 µM (inactive) in test [1]; > 30 µM (inactive) on Activin receptor type-1; > 30 µM (inactive) at Glycine--tRNA ligase; > 30 µM (inactive) in test [2]; > 30 µM (inactive) in test [3]; 3.03 µM (active) in test [4]. Moreover, the Kd in test [5] was > 30 µM (inactive).
Regarding `CCOc1cc2ncc(C#N)c(Nc3ccc(F)c(Cl)c3)c2cc1NC(=O)/C=C/CN(C)C` [PELITINIB], the equilibrium dissociation constant (Kd) is 1.1 µM (active) in test [1]; > 30 µM (inactive) on Activin receptor type-1; > 30 µM (inactive) at Glycine--tRNA ligase; > 30 µM (inactive) in test [2]; > 30 µM (inactive) in test [3]; > 30 µM (inactive) in test [4]. For the same molecule, the equilibrium dissociation constant (Kd) in test [5] was 8.77 µM (active).
In the case of `CCCCCCCCCCCCCCCCCCOP(=O)([O-])OC1CC[N+](C)(C)CC1` [PERIFOSINE], the Kd (in test [1]; on Activin receptor type-1; on Glycine--tRNA ligase; in test [2]; in test [3]; in test [4]) was > 30 µM (inactive) each time. Also, in test [5], the Kd was > 30 µM (inactive).
As to `Cc1nc(Nc2n[nH]c3c2CN(C(=O)N[C@H](CN(C)C)c2ccccc2)C3(C)C)c2sccc2n1` [PF-03758309], the dissociation constant (Kd) in test [1] is 2.3 µM (active); at Activin receptor type-1 it was > 30 µM (inactive); at Glycine--tRNA ligase, > 30 µM (inactive); in test [2], > 30 µM (inactive); in test [3], > 30 µM (inactive); in test [4], > 30 µM (inactive). In addition, in test [5], the Kd was > 30 µM (inactive).
As for `Cc1cnc(NC(=O)Nc2cc(Br)c(C)cc2OC[C@@H]2CNCCO2)cn1` [RABUSERTIB], the Kd (in test [1]; at Activin receptor type-1; at Glycine--tRNA ligase; in test [2]; in test [3]; in test [4]) was > 30 µM (inactive) each time. In test [5], the Kd is > 30 µM (inactive).
